Test results from patent US20160113900A1, “INHIBITORS OF MITOCHONDRIAL STAT3 AND USES THEREOF IN MODULATION OF MAST CELL EXOCYTOSIS” (Yissum Research Development Company of the Hebrew …, priority 2014, published 2016).
Values belong to the molecule of their own block, whether it stands above or below them.

Experiments:
[1] = tested on: plasma histamine; assay: In vivo histamine release assay, passive systemic IgE-mediated anaphylaxis model; conditions: mice, Mitocur-3 40 mg/kg i.p., 3.5 h before DNP-BSA challenge
Experimental: C3H 6-7 week male and female WT mice were purchased from Jackson Lab (Cambridge, Mass., USA), mice were fed a regular diet and with drinking water ad libitum. Experiments were approved by The Hebrew University Ethical Committee for Animal Experimentation.
WT C3H mice were sensitized with 3 μg murine IgE anti-DNP mAb SPE-7 by means of intravenous injection in the tail vein. Twenty-four hours later, mice were treated with 40 mg/kg of static dissolved in corn oil or corn oil alone for 2.5 hours, then mice were challenged with i.v. injection of DNP-BSA (250 μg per mouse). 100 μl of blood was collected immediately and added to an equal volume of pre-cold Alsever's Solution. Blood was centrifuged 2000 g for […] and plasma supernatant was collected. Plasma histamine levels were determined by using competitive ELISA (IBL International Gmbh, Hamburg, Germany).
STAT3's role in vivo was investigated by evaluating the response to allergic stimulation in Stattic-treated mice. The passive systemic IgE-mediated anaphylaxis model was used. Mice were injected (i.v.) with IgE anti-DNP. Twenty four hours later they were injected (i.p.) with Stattic (80 mg/kg) or corn oil which was used as control. Three and a half hours later the mice were challenged with DNP-BSA for 1.5 minutes. Plasma was collected, and histamine levels were measured by competitive ELISA. Histamine secretion in Stattic-treated mice was 43% less than that in control mice (FIG. 17, p<0.05).
Mitocur-1/3 effectiveness in vivo was investigated by evaluating the response to allergic stimulation in Mitocur-1/3-treated mice. The passive systemic IgE-mediated anaphylaxis model was used. Mice were injected (i.v.) with IgE anti-DNP. Twenty four hours later they were injected (i.p.) with Mitocur-1 (80 mg/kg) and Mitocur-3 (40 mg/kg). Corn oil was used as control. Three and a half hours later the mice were challenged with DNP-BSA for 1.5 minutes. Plasma was collected, and histamine levels were measured by competitive ELISA. Histamine secretion in Mitocur-1-treated mice was 35% less than that in control mice (FIG. 22A, p<0.05).

[2] = tested on: RBL cells; assay: ATP determination (ATPLite luminescence) in RBL cells; assay type: cell-based, rat; conditions: RBL cells
Experimental: (§1) RBL-2H3 cells were maintained in RPMI 1640 medium as previously described1. Bone marrow was isolated from 5-6 week-old mice, and BMMC were cultured in RPMI medium supplemented with 20 ng/ml interleukin-3 (IL-3) and 20 ng/ml SCF as previously described2, 3. Cells were generally grown for a minimum of 4 weeks and used when >90% of the population expressed FcεRI. BMMC and RBL cells were sensitized first with anti-DNP IgE monoclonal antibody (SPE-7; Sigma-Aldrich Corp.) and then challenged with DNP-BSA (Sigma-Aldrich Corp.). IgE antibody was centrifuged (18,000 g, 5 min) before use to remove aggregates. […] For glycolysis elimination cells were maintained in glucose-free RPMI supplemented with 10% dialyzed fetal calf serum and 5 mM galactose.
ATP levels were measured using the ATPLite luminescence-based assay according to the manufacturer's instructions (Perkin Elmer, Waltham, Mass., USA).

[3] = tested on: RBL cells; assay: TNF-α secretion of activated RBL cells; assay type: cell-based, rat; conditions: activated RBL cells (FIG. 19G)
[4] = tested on: BMMC; assay: Measurements of secreted mediators (ELISA) in activated BMMC; assay type: cell-based, mouse
Experimental: 1×106 BMMC were immunologically activated as described above. After IgE incubation, the cells were washed three times in PBS and incubated with DNP-albumin (Sigma-Aldrich) for 30 mM in complete growth medium. Supernatant was collected and Granzyme B and TNFα content were measured using ELISA Kits (eBioscience).

[5] = tested on: BMMC; assay: β-Hexosaminidase release assay (degranulation) in BMMC; assay type: cell-based, mouse; conditions: activated BMMC, 6 μM
Experimental: as §1
(§2) 1×104 RBL or 3×104 BMMC were immunologically activated as described above. After IgE incubation, the cells were washed three times with 5 mL of degranulation buffer (NaCl 130 mM, KCl 5 mM, Glucose 5.6 mM, MgCl2 1 mM, CaCl2 1.2 mM, Hepes pH 7.4 10 mM, BSA 0.1%) and resuspended in 200 μL of the same buffer with DNP-albumin for 30 min. The release of β-hexosaminidase was determined in triplicates in a 96-well plate. Aliquots (20 μL) of supernatants and cell lysates were incubated for 30 minutes with 100 μL of substrate solution (1.3 mg/mL p-nitrophenyl-b-D-2-acetamido-2-deoxyglucopyranozide in 0.1 M citrate [pH 4.51]). The reaction was stopped by the addition of 200 μL of 0.2 M glycine (pH 10.7). The plate OD was read in an enzyme-linked immunosorbent assay (ELISA) reader at a wavelength of 405 nm Percent release values for each experimental condition were calculated3.

[6] = tested on: caspase3; assay: Western blot of cleaved caspase3 in BMMC; assay type: cell-based, mouse; conditions: 6 μM (FIG. 21D)
[7] = tested on: c-myc; assay: Western blot of c-myc (STAT3 target gene) in RBL cells; assay type: cell-based, rat; conditions: 3 h
Experimental: (§3) RBL cells and mitochondrial pellets were lysed by the addition of lysis buffer (50 mM Tris-HCl pH 7.4, 1% Nonidet P-40, 0.25% Na-deoxycholate, 150 mM NaCl, 1 mM EDTA, 1 mM PMSF) supplemented with 15 μl protease inhibitor (Sigma-Aldrich). Cells and mitochondria were vortexed and incubated on ice for 15 min. The lysates were then centrifuged at 14,000 g for 15 min and pellets were discarded. The protein concentration of each sample was determined using Bradford Reagent (Sigma-Aldrich). Proteins were resolved by 10-15% SDS-PAGE under reducing conditions and transferred to polyvinylidene difluoride membranes (Millipore Billerica, Ma). The membranes were incubated in 5% fat-free milk and TBST (10 mM Tris-HCl, pH 7.4, 150 mM NaCl, 0.1% Tween 20) for 1 h and then in 5% BSA and TBST containing various dilutions of primary Abs for 18 h at 4° C. The membranes were washed three times with TBST for 5 mM before and after each incubation with secondary Ab. The proteins were detected with the appropriate secondary Ab (1 h; room temperature) coupled to HRP-conjugated goat anti-rabbit or anti-mouse Ab and visualized by chemiluminescence according to the manufacturer's instructions (Pierce).
The levels of cleaved caspase3 were measured as an indicator of apoptosis, which could occur as a result of inhibiting STAT3's target genes. […] Since higher concentrations reduced the levels of c-myc and enhanced the levels of cleaved caspase3, the inventors concluded that 6 μM Mitocur-1/3 or lower would be suitable for the present invention. As these molecules are intended to be used in a time frame greater than 3 h, RBL cells were incubated with the same concentrations of Mitocur-1/3 for 24 h and the levels of cleaved caspase3 were determined by Western blot analysis.

[8] = tested on: RBL cells; assay: Oxygen consumption (Seahorse XF analyzer) in RBL cells; assay type: cell-based, rat; conditions: RBL cells, 3 h
Experimental: as §1
Oxygen consumption rate (OCR) was measured using an XF24 extracellular flux analyzer (Seahorse Biosciences, North Billeric, Mass., USA).

[9] = tested on: caspase3; assay: Western blot of caspase3 / cleaved caspase3 (apoptosis) in RBL cells; assay type: cell-based, rat; conditions: RBL cells
Experimental: as §3

[10] = tested on: CBMC; assay: β-Hexosaminidase release assay (degranulation) in human cord blood-derived mast cells; assay type: cell-based; conditions: 12 μM, 3 h incubation
[11] = tested on: RBL cells; assay: β-Hexosaminidase release assay (degranulation) in RBL cells; assay type: cell-based, rat
Experimental: as §1, §2

[12] = cited from earlier work
[13] = immunologically activated BMMC, 6 μM (FIG. 21C)

- degranulation levels ([5]; 3 h incubation): reduced
- degranulation levels ([5]; 24 h incubation): reduced
- cleaved caspase3 levels [6]: no change
- melting point: 145 to 160 °C
SMILES: O=C(/C=C/c1ccc(OCCC[P+](c2ccccc2)(c2ccccc2)c2ccccc2)cc1)CC(=O)/C=C/c1ccc(OCCC[P+](c2ccccc2)(c2ccccc2)c2ccccc2)cc1 [Mitocur-3, 1,7-{4-[3-(triphenylphosphonium)propoxy]phenyl}hepta-1,6-diene-3,5-dione dichloride]
- decrease in histamine secretion [1]: 32.4%
- ATP levels ([2]; 100 μM, 3 h (data not shown)): reduced
- ATP levels ([2]; 6-50 μM, 3 h): No significant reduction
- TNF-α secretion [3]: completely abolished
- Granzyme-B secretion ([4]; BMMC (data not shown)): abolished
- cytokine secretion: IL-6 [4, 13]: totally abolished
- cytokine secretion: TNF-α [4, 13]: totally abolished
- c-myc levels compared to control ([7]; 6 μM): no change
- c-myc levels ([7]; concentrations higher than 6 μM): reduced
- oxygen consumption ([8]; 100 μM): reduced
- oxygen consumption ([8]; 6-50 μM): No significant reduction
- cleaved caspase levels ([9]; 6 μM, 3 h): no change
- cleaved caspase3 levels ([9]; 6 μM, 24 h): slight change
- cleaved caspase3 levels ([9]; concentrations higher than 6 μM, 3 h): enhanced
- degranulation levels [10]: successfully reduced
- Emax at 6 µM ([11]; Rattus norvegicus, RBL cells, 6 μM, 3 h incubation, read-out: maximum effect, reduction of degranulation): > 50%

SMILES: COc1cc(/C=C/C(=O)CC(=O)/C=C/c2ccc(O)c(OC)c2)ccc1O [curcumin, (1E,6E)-1,7-Bis(4-hydroxy-3-methoxyphenyl)-1,6-heptadiene-3,5-dione]
- pKa of the two phenolic OH groups [12]: 10-10.5
- degranulation (β-hexosaminidase release) ([11]; RBL cells, curcumin 12.5, 25, 50 and 100 μM, 10 min (FIG. 19A)): significantly reduced
- degranulation levels ([11]; activated RBL cells, 10 min incubation with curcumin (FIG. 8)): completely abolished
